Assay [1] deals with T1, Corticotropin-releasing factor receptor 2/Corticotropin-releasing factor-binding protein (Homo sapiens, UniProt P24387+Q13324).
T1 sequence (Q13324 whole entry): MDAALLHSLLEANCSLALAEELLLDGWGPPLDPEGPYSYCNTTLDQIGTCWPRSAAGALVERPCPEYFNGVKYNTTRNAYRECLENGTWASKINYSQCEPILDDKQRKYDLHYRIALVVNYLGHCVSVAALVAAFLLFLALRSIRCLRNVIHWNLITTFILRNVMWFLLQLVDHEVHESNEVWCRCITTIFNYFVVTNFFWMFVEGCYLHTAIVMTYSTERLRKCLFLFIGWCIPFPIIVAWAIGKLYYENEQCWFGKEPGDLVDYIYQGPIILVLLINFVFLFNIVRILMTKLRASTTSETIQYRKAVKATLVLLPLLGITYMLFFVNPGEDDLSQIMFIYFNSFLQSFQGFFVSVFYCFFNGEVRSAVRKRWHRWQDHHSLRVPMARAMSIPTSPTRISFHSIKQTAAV
T1 sequence (P24387 whole entry): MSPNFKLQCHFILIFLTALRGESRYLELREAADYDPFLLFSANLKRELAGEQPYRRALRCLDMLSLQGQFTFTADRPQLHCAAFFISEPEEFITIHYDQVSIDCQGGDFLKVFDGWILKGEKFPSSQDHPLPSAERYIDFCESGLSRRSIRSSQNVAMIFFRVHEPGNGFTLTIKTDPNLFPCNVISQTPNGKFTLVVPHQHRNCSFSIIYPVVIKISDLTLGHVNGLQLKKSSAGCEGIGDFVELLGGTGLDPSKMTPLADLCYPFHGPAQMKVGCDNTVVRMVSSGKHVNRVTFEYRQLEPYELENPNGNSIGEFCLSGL
Put plainly: Dose Response confirmation of uHTS hits for small molecule antagonists of the CRF-binding protein and CRF-R2 receptor complex. In kind it is functional. Particulars: read-out: IC50_Mean.

The target of assay [2] is T1, Corticotropin-releasing factor receptor 2/Corticotropin-releasing factor-binding protein. Put plainly: activators of CRF receptor 2 with binding protein – uHTS hits, confirmation (AID 602473). The note with it: read-out: EC50_Mean. In kind it is functional.
Assay [3] can be described thus: inhibitors of firefly luciferase expression or activity, dose response, H4 neuroglioma cells, luminescence (AID 1990). In kind it is functional, cell-based.
Assay [4] is described as follows: Luminescence Cell-Based Dose Response HTS to Identify Inhibitors of 5'UTR Stem-Loop Driven Prion Protein mRNA Translation in H4 Neuroglioblastoma Cells. [Related pubchem assays: 1827 (Project Summary), 1813 (Primary HTS)]. In kind it is functional.
Assay [5] can be described thus: inhibitors of SNCA 5'UTR-driven reporter translation, confirmation, H4 neuroglioma cells, luminescence (AID 1988). In kind it is functional, cell-based.
Assay [6] addresses Cytochrome P450 2C19 (Homo sapiens, UniProt P33261). Put plainly: Cytochrome panel assay with activity outcomes. Panel member name: p450-cyp2c19 Compounds with AC50 equal or less than 10 uM are considered active. In kind it is functional. The note with it: read-out: AC50.
Assay [7] addresses Cytochrome P450 2C9 (Homo sapiens, UniProt P11712).
Assay [8] concerns the target T2, Cytochrome P450 1A2 (Homo sapiens, UniProt P05177).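 Note: PubChem cytochrome P450 panel assay, CYP1A2 panel member.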
T2 sequence (P05177 whole entry): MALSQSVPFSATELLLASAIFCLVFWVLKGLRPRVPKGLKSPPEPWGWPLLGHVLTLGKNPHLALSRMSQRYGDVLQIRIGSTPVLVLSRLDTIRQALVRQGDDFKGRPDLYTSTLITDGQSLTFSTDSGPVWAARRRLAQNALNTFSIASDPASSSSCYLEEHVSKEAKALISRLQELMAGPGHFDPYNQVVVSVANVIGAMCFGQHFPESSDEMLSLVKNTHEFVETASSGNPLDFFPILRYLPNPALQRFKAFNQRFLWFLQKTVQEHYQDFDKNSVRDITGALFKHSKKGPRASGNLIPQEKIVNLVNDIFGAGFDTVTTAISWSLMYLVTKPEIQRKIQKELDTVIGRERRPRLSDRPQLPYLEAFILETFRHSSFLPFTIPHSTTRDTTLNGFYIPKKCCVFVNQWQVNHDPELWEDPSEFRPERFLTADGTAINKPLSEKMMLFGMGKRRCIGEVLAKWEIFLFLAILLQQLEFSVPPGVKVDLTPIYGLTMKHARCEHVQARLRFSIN

The test system of assay [9] is Streptococcus sp. 'group A'. Put plainly: growth inhibition of control SK(-) GAS strain, dose response, counter-screen for streptokinase expression inhibitor project, luminescence, kanamycin, BacTiterGlo, confirmation (AID 1900). In kind it is functional, organism-based. Background: Counterscreens check selectivity or assay interference.
Assay [10] has as its target T3, Streptokinase A (Streptococcus pyogenes serotype M1, UniProt P10520).
T3 sequence (P10520 whole entry): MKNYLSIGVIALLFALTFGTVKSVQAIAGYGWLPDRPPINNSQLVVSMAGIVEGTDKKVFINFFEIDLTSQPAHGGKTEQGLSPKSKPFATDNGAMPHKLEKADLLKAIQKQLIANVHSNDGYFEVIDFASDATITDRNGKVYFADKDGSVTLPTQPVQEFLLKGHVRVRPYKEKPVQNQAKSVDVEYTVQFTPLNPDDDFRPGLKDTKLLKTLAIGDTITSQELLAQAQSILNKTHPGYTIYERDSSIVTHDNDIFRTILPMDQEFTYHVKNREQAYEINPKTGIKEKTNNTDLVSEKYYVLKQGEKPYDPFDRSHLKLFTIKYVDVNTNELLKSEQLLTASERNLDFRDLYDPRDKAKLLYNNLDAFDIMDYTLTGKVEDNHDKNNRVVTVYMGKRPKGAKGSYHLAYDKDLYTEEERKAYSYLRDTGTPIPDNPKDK
Put plainly: S. pyogenes streptokinase expression inhibitors, potency, dose response, plasminogen activation absorbance, OD405 (AID 1914).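 Note: secreted streptokinase activity via plasminogen activation per viability signal from cell pellet.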 In kind it is functional, Streptococcus pyogenes M1 GAS.

Assay [11] relates to Streptococcus. Put plainly: Group A Streptococcus viability loss, dose response, counter-screen for streptokinase expression inhibitor project, luminescence, BacTiterGlo (AID 1915).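 Note: potency for reduction of bacterial viability or growth.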 In kind it is functional, organism-based.
A short description of assay [12]: Luminescence Cell-Based Dose Response HTS to Identify Activators of Luciferase Translation or Activity in H4 […] Cells. [Related pubchem assays: 1829 (Project Summary), 1814 (Primary HTS)]. In kind it is functional.
The subject of assay [13] is H4. Put plainly: Luminescence Cell-Based Dose Response HTS to Identify Activators of 5'UTR Stem-Loop Driven Prion Protein mRNA Translation in H4 Neuroglioblastoma Cells. [Related pubchem assays: 1829 (Project Summary), 1814 (Primary HTS)]. In kind it is functional. Particulars: Homo sapiens.
Assay [14] concerns the target Cytochrome P450 3A4 (Homo sapiens, UniProt P08684).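 Note: CYP3A4 tested as one member of a cytochrome P450 panel screen.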

Active and inactive are the calls of the source. Bounds are passed on as bounds.

Cytochrome P450 2C9, sequence (P11712 whole entry): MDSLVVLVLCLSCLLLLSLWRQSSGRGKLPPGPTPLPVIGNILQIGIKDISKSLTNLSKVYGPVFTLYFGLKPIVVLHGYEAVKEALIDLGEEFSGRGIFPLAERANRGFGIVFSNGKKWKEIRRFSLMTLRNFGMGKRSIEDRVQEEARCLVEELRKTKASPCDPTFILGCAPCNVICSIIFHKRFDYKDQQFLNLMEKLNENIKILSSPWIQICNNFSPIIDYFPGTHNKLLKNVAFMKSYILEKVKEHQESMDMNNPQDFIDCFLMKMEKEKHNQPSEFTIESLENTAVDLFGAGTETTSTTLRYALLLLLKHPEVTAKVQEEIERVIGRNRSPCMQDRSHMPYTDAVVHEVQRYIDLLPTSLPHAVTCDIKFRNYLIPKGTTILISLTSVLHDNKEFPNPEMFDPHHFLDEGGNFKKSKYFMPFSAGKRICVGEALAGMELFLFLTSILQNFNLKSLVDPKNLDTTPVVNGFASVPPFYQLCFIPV
Cytochrome P450 2C19, sequence (P33261 whole entry): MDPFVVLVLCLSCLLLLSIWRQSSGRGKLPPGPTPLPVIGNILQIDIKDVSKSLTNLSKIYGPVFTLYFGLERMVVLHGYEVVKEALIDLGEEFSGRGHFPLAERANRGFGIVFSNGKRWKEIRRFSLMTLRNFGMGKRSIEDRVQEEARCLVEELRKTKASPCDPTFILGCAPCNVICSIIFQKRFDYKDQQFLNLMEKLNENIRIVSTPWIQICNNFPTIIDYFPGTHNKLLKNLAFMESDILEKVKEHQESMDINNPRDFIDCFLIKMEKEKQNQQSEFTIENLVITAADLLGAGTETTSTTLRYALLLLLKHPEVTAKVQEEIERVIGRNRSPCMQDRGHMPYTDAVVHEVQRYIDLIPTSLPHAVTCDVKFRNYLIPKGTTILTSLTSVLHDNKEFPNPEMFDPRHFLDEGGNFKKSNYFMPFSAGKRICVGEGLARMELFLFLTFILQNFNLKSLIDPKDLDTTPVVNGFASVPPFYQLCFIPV
Cytochrome P450 3A4, sequence (P08684 whole entry): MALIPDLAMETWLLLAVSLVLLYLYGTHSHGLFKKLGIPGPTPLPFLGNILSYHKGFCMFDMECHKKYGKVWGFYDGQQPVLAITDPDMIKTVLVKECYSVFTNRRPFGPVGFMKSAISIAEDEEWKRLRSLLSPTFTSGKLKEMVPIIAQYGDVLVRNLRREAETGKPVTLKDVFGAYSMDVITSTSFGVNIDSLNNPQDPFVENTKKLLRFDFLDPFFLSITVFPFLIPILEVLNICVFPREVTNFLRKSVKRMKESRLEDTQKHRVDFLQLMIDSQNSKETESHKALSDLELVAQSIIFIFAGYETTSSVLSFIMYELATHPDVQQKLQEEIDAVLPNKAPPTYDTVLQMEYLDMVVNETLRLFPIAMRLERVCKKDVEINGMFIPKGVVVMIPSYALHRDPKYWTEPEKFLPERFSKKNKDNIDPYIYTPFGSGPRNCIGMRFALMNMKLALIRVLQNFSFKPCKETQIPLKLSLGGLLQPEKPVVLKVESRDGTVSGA

On to `Cc1[nH]c2ccccc2c1SCCNC(=O)c1ccc(S(=O)(=O)N2CCCC2)cc1`, for which the IC50 in assay [1] is > 47.1 µM (inactive). Moreover, the EC50 in [2] was > 53 µM (inactive).
For the molecule `CCCCCC(=O)Nc1ccccc1N1CCOCC1`, the EC50 in assay [3], in assay [4] and in assay [5] was > 120 µM (not active) in each case.
By AC50 is commonly meant the concentration at which the activity in the assay is half-maximal. With `CCOc1ccc(-n2c(N)c(C(=O)NCc3cccnc3)sc2=S)cc1`, the concentration at half-maximal activity (AC50) in [6] is 8.91 µM (inconclusive); in assay [7], 3.55 µM (inconclusive).
As for `COc1ccccc1C(c1nnnn1C(C)(C)C)N1CCN(Cc2ccncc2)CC1` (stereo not drawn), the AC50 in [8] was 25.1 µM (inconclusive).
On the same count and under the same terms, as for `CCNc1ncc2nc(-c3ccc(F)cc3)c(=O)n(-c3ccccc3)c2n1`, the figure is 0.398 µM (inconclusive).
In the case of `S=C(Nc1ccccc1)N1CCCCC1`, the figures for the AC50 in [6] and in assay [8] were 17.8 µM (inconclusive) and 22.4 µM (inconclusive), respectively.
As for `COCCCNc1nc(N)c([N+](=O)[O-])c(Nc2cc(OC)ccc2OC)n1`, the figures for the EC50 in [3], in assay [4] and in [5] were 17.4 µM (active), 13.5 µM (active) and 17.8 µM (active), respectively.
Take `CCOC(=O)C1CCCN(S(=O)(=O)c2ccccc2)C1` (stereo not drawn): the IC50 in assay [1] was > 47.1 µM (inactive). Also, the EC50 in [2] is > 53 µM (inactive).
Regarding `O=[N+]([O-])c1ccc(Cl)cc1Sc1nc2ccccc2o1`, the EC50 in assay [3] was > 120 µM (not active); in [9], 2.25 µM (active); in assay [4], > 120 µM (not active); in assay [5] it was > 120 µM (not active); in assay [10] it was 6.18 µM (active); in assay [11], 7.26 µM (active).
As for `COc1cc(NC(=S)NCCC(c2ccccc2)c2ccccc2)c(OC)cc1Cl`, the IC50 in assay [1] was 4.69 µM (active). For the same molecule, the EC50 in assay [2] was > 53 µM (inactive).
Regarding `O=C(Nc1nnc(C2CC2)s1)C1Cc2ccccc2CN1S(=O)(=O)c1ccccc1F` (stereo not drawn), the figures for the EC50 in [12] and in assay [13] were 0.123 µM (active) and > 120 µM (not active), respectively.
With `Cc1ccc2c(CC(=O)NCC(=O)Nc3c(C)cccc3C)coc2c1`, the IC50 in [1] is > 47.1 µM (inactive). Moreover, in assay [2], the EC50 is > 53 µM (inactive).
Take `Cc1cccc(C(=O)N2CCN(c3ccc([N+](=O)[O-])c(NCc4ccco4)c3)CC2)c1`: in [14], the AC50 was 28.2 µM (inconclusive).
Regarding `NCc1ccccc1.O=C(O)NCc1ccccc1`, the AC50 in assay [6] was 2.51 µM (inconclusive); in assay [7] it was 3.98 µM (inconclusive).
With `CCOc1ccc2c(c1)s/c(=N/C(=O)C1CC1)n2C`, the EC50 in [12] was 0.508 µM (active); in assay [13], 63.4 µM (active).
Take `CCNc1nnc(-c2ccncc2)s1`: the AC50 was 15.8 µM (inconclusive) in [8] and 17.8 µM (inconclusive) in [7].
Regarding `Cc1ccccc1CN(C)C(=O)COC(=O)c1ccc2[nH]c(C)c(C)c2c1`, in assay [1], the IC50 was > 47.1 µM (inactive). Further, in [2], the EC50 was > 53 µM (inactive).
As to `CCOCCCN(CC(=O)NC1CCCC1)C(=O)C(=O)Nc1ccc2c(c1)OCCO2`, the IC50 in assay [1] was > 47.1 µM (inactive). Besides, the EC50 in [2] was > 53 µM (inactive).
With `c1ccc(CSc2nnc3c4ccccc4c4ccccc4c3n2)cc1`, in assay [14], the AC50 was 3.98 µM (inconclusive).
Regarding `CCOC(=O)c1ccccc1NC1c2ccccc2C(=O)N1c1ccc(C)cn1` (stereo not drawn), the results for the EC50 in [12] and in assay [13] were 9.17 µM (active) and 18.5 µM (active), respectively.
As for `CCN(c1ccccc1)S(=O)(=O)c1ccc(NC(=S)NC(=O)c2cccs2)cc1`, the AC50 in assay [14] was 2.24 µM (inconclusive).
As for `N#CNC(=Nc1cccc(F)c1)SCc1ccccc1`, the IC50 in assay [1] is 14 µM (active). The EC50 in assay [2] was > 53 µM (inactive).
On to `CCN1CCCC1CNC(=O)CSCc1nc(-c2ccccc2C)oc1C` (stereo not drawn), for which the AC50 in assay [6] is 28.2 µM (inconclusive); in assay [8], 39.8 µM (inconclusive).
Consider `Cc1ccc(C(=O)N2C(=O)C(c3ccccc3)Oc3ccccc32)cc1` (stereo not drawn), for which the EC50 in assay [3], in [4] and in assay [5] was > 120 µM (not active) each time.
In the case of `O=C(/C=C\Nc1ccc(S(=O)(=O)Nc2ncccn2)cc1)c1cccc2ccccc12`, the results for the EC50 in assay [3], in [4] and in assay [5] were 18.3 µM (active), > 120 µM (not active) and > 120 µM (not active), respectively.
Consider `COC(=O)c1cc(Br)c(=O)n(CCc2ccc(O)cc2)c1`, for which the AC50 in assay [8] is 10 µM (inconclusive).
As for `CNC(=O)CN(C1CCCCC1)S(=O)(=O)c1ccc(F)cc1`, in assay [1], the IC50 is > 47.1 µM (inactive). For the same molecule, in [2], the EC50 was > 53 µM (inactive).
With `CCN(CC)CCCCCCCCOC(=O)c1cc(OC)c(OC)c(OC)c1`, the concentration at half-maximal activity (AC50) in assay [14] is 10 µM (inconclusive).
Consider `CCc1nc(N2CCC3(CC2)OCCO3)c2nnn(Cc3ccccc3Cl)c2n1`, for which, in assay [14], the AC50 is 15.8 µM (inconclusive).
`Nc1cc(O)nc(SCCSc2ccccc2F)n1`: the EC50 in [3] is < 0.1 µM (active); in assay [4], 22.3 µM (active); in [5], 1.29 µM (active).
In the case of `CS(=O)(=O)N1CCC[C@@]2(CCN(c3ccccn3)C2)C1`, the AC50 in assay [14] was 20 µM (inconclusive).
On to `COCCn1c(=O)c(C)nc2cncnc21`, for which the AC50 in [6] was 39.8 µM (inconclusive); in [8], 15.8 µM (inconclusive); in assay [7], 31.6 µM (inconclusive).
Consider `COc1ccc(-n2cnc3sc(-c4ccccc4)cc3c2=O)cc1`, for which the AC50 in [8] was 3.55 µM (inconclusive).
As for `COc1ccccc1-n1c(=S)sc2c(=O)n(Cc3ccco3)c(SC)nc21`, in assay [1], the IC50 was > 47.1 µM (inactive). Also, the EC50 in assay [2] is > 53 µM (inactive).
For `CCC1CC2CC(NC(C)=O)C1C2` (stereo not drawn), the AC50 in assay [6] is 20 µM (inconclusive); in assay [7], 7.08 µM (inconclusive).
Regarding `O=c1oc2c(Cl)cc(Cl)cc2cc1-c1nnc(Nc2ccccc2F)s1`, the AC50 in [8] is 15.8 µM (inconclusive).
Regarding `O=C(O)[C@H]1[C@H]2CN[C@H](C(=O)O)[C@H]21`, the concentration at half-maximal activity (AC50) in [6] and in assay [8] was 31.6 µM (inconclusive) each time.

The values are drawn from ChEMBL document CHEMBL1201862, “PubChem BioAssay data set” (2004).
